System: patients with advanced renal cell carcinoma
Assay: METEOR quality of life (FKSI-19, FKSI-DRS, EQ-5D-5L) and time to deterioration
Type: in vivo, human
Conditions: for Able to work, LSMean change from baseline / Blood in my urine, LSMean change from baseline / Bone pain, LSMean change from baseline / Content with quality life, LSMean change from baseline / Coughing, LSMean change from baseline / Diarrhea, LSMean change from baseline / Enjoy life, LSMean change from baseline / Fatigued, LSMean change from baseline / Fevers, LSMean change from baseline / Good appetite, LSMean change from baseline / Lack of energy, LSMean change from baseline / Losing weight, LSMean change from baseline / Nausea, LSMean change from baseline / Pain, LSMean change from baseline / Short of breath, LSMean change from baseline / Side effects of treatment, LSMean change from baseline / Sleeping well, LSMean change from baseline / Weak all over, LSMean change from baseline / Worry condition worsen, LSMean change from baseline: FKSI-19 item; for DRS-Emotional, LSMean change from baseline / DRS-Physical, LSMean change from baseline / Function/Well-Being, LSMean change from baseline / Treatment Side Effects, LSMean change from baseline: FKSI-19 subscale; for EQ-VAS, Cabo vs Evero Intercept (change at Week 4) / EQ-VAS, Cabo vs Evero Slope / FKSI-19 Total, Cabo vs Evero Intercept (change at Week 4) / FKSI-19 Total, Cabo vs Evero Slope / FKSI-DRS (9-item), Cabo vs Evero Intercept (change at Week 4) / FKSI-DRS (9-item), Cabo vs Evero Slope / EQ-Index, Evero Intercept (change at Week 4) / EQ-VAS, Evero Intercept (change at Week 4) / FKSI-19 Total, Evero Intercept (change at Week 4) / FKSI-DRS (9-item), Evero Intercept (change at Week 4): growth curve analysis; for Median time to deterioration (TTD): earlier of death, rPD, ≥4-point FKSI-DRS decrease from baseline
From the text: Patients completed the 19-item Functional Assessment of Cancer Therapy-Kidney Symptoms Index (FKSI-19) and the 5-level EuroQoL-5 Dimensions (EQ-5D-5L) questionnaires at baseline and throughout the study. The 9-item FKSI-Disease Related Symptoms (FKSI-DRS) is a subset of FKSI-19. Data were summarized descriptively and by mixed-effects repeated-measures analysis (clinically relevant difference was an effect size ≥0.3). Time to deterioration (TTD) was defined as earlier of death, radiographic progressive disease or ≥4-point decrease from baseline in FKSI-DRS.
QoL was measured by using two validated patient self-reported instruments: the Functional Assessment of Cancer Therapy-Kidney Symptom Index-19 item (FKSI-19) and EuroQol Group's EQ-5D-5L questionnaires. Patients were required to complete the QoL questionnaires before any assessments at each clinic visit prior to the first dose, every 4 weeks through Week 25, every 8 weeks thereafter for the first year, then every 12 weeks thereafter. The QoL assessments were conducted per protocol prior to the patient knowing the results of their next tumor assessment. These assessments were performed regardless of whether study treatment was given, reduced, interrupted, or discontinued until the date of the last tumor imaging assessment. Questionnaires were provided on paper in the patient's own language.
The FKSI-19 instrument is a 19-item self-reported questionnaire with a total score and four subscales that assesses disease-related symptoms (DRS), treatment side effects, and function/well-being associated with advanced kidney cancer. It queries symptom severity and interference in activity and general health perceptions (Rao D, Butt Z, Rosenbloom S, Robinson D Jr, Von Roenn J, Kuzel T M, Cella D. A Comparison of the Renal Cell Carcinoma-Symptom Index (RCC-SI) and the Functional Assessment of Cancer Therapy-Kidney Symptom Index (FKSI). J Pain Symptom Manage. 2009; 38(2):291-8; Rothrock N E, Jensen S E, Beaumont J L, Abernethy A P, Jacobsen P B, Syrjala K, Cella D. Development and initial validation of the NCCN/FACT symptom index for advanced kidney cancer. Value Health. 2013; 16(5):789-96). The FKSI-19 comprises four sub-scales (DRS-Physical, DRS-Emotional, Treatment Side Effects, and Function/Well Being; Table 2.1). Each of the items is scored on a 5-point scale from 0 (not at all) to 4 (very much). Higher FKSI-19 scores indicate improvement. The FKSI-19 ensures content validity congruent with FDA Guidance (FDA. Guidance for Industry. Patient-Reported Outcome Measures: Use in Medical Product Development to Support Labeling Claims. December 2009). and was developed from a previous 9-item DRS version (FKSI-DRS; lack of energy, pain, losing weight, fatigue, short of breath, fevers, bone pain, coughing, blood in urine). The FKSI-19 includes selected treatment side effects that are important to the patient and physician.
The standardized measure of health status EQ-5D-5L, developed by the EuroQol, was also used in this study in order to measure generic health status (Herdman M, Gudex C, Lloyd A, Janssen M, Kind P, Parkin D, t al. Development and preliminary testing of the new five-level version of EQ-5D (EQ-5D-5L). Qual Life Res. 2011; 20(10):1727-36). It comprises five functional and symptom dimensions: mobility, self-care, usual activities, pain/discomfort, and anxiety/depression. Levels indicate increasing severity from Level 1 (no problem) to Levels 2 through 5 (mild problem to extreme problem). The digits from the 5 dimensions were converted into a single population-based index value normalized across the nine countries in the study for which index value sets were available (van Hout B, Janssen M F, Feng Y S, Kohlmann T, Busschbach J, Golicki D, et al. Interim scoring for the EQ-5D-5L: mapping the EQ-5D-5L to EQ-5D-3L value sets. Value Health. 2012; 15(5):708-15). Index values range from 0 to 1 and a higher index score indicates better health. […]

[1] = bone metastases per IRC at baseline: No
[2] = bone metastases per IRC at baseline: Yes
[3] = cabozantinib vs everolimus, positive favors cabozantinib
[4] = Late Dropout (Week 41 or later)

SMILES: COc1cc2nccc(Oc3ccc(NC(=O)C4(C(=O)Nc5ccc(F)cc5)CC4)cc3)c2cc1OC [cabozantinib]
- Able to work, LSMean change from baseline (repeated measures, ITT): −0.151
- Blood in my urine, LSMean change from baseline (repeated measures, ITT): 0.005
- Bone pain, LSMean change from baseline (repeated measures, ITT): 0.049
- Content with quality life, LSMean change from baseline (repeated measures, ITT): −0.035
- Coughing, LSMean change from baseline (repeated measures, ITT): 0.237
- Diarrhea, LSMean change from baseline (repeated measures, ITT): −1.28
- Enjoy life, LSMean change from baseline (repeated measures, ITT): −0.017
- Fatigued, LSMean change from baseline (repeated measures, ITT): −0.325
- Fevers, LSMean change from baseline (repeated measures, ITT): 0.056
- Good appetite, LSMean change from baseline (repeated measures, ITT): −0.166
- Lack of energy, LSMean change from baseline (repeated measures, ITT): −0.244
- Losing weight, LSMean change from baseline (repeated measures, ITT): −0.533
- Nausea, LSMean change from baseline (repeated measures, ITT): −0.236
- Pain, LSMean change from baseline (repeated measures, ITT): 0.125
- Short of breath, LSMean change from baseline (repeated measures, ITT): 0.029
- Side effects of treatment, LSMean change from baseline (repeated measures, ITT): −0.850
- Sleeping well, LSMean change from baseline (repeated measures, ITT): 0.018
- Weak all over, LSMean change from baseline (repeated measures, ITT): −0.281
- Worry condition worsen, LSMean change from baseline (repeated measures, ITT): 0.398
- DRS-Emotional, LSMean change from baseline (repeated measures, ITT): 0.398
- DRS-Physical, LSMean change from baseline (repeated measures, ITT): −1.093
- Function/Well-Being, LSMean change from baseline (repeated measures, ITT): −0.230
- Treatment Side Effects, LSMean change from baseline (repeated measures, ITT): −2.416
- Median TTD [1]: 5.5 mo
- TTD HR, cabozantinib vs everolimus [1]: 0.69
- Median TTD [2]: 5.6 mo
- TTD HR, cabozantinib vs everolimus [2]: 0.49
- Able to work, Effect Size [3]: −0.037
- Blood in my urine, Effect Size [3]: 0.023
- Bone pain, Effect Size [3]: −0.008
- Content with quality life, Effect Size [3]: −0.014
- Coughing, Effect Size [3]: 0.28
- DRS-Emotional, Effect Size [3]: 0.004
- DRS-Physical, Effect Size [3]: 0.046
- EQ-VAS, Effect Size [3]: −0.003
- Enjoy life, Effect Size [3]: −0.002
- FKSI-19 (19-item) Total Score, Effect Size [3]: −0.13
- FKSI-DRS (9-item), Effect Size [3]: 0.087
- Fatigued, Effect Size [3]: −0.017
- Fevers, Effect Size [3]: 0.13
- Function/Well-Being, Effect Size [3]: −0.019
- Good appetite, Effect Size [3]: −0.23
- Lack of energy, Effect Size [3]: −0.033
- Losing weight, Effect Size [3]: −0.21
- Pain, Effect Size [3]: 0.052
- Side effects of treatment, Effect Size [3]: −0.24
- Sleeping well, Effect Size [3]: 0.12
- Weak all over, Effect Size [3]: −0.015
- Worry condition worsen, Effect Size [3]: 0.004
- EQ-VAS, Cabo vs Evero Intercept (change at Week 4) (Early Dropout (before Week 24)): −1.933
- EQ-VAS, Cabo vs Evero Slope (Early Dropout (before Week 24)): 0.498
- FKSI-19 Total, Cabo vs Evero Intercept (change at Week 4) (Early Dropout (before Week 24)): 0.241
- FKSI-19 Total, Cabo vs Evero Slope (Early Dropout (before Week 24)): 0.131
- FKSI-DRS (9-item), Cabo vs Evero Intercept (change at Week 4) (Early Dropout (before Week 24)): 1.445
- FKSI-DRS (9-item), Cabo vs Evero Slope (Early Dropout (before Week 24)): 0.037
- EQ-VAS, Cabo vs Evero Intercept (change at Week 4) [4]: −4.749
- EQ-VAS, Cabo vs Evero Slope [4]: 0.134
- FKSI-19 Total, Cabo vs Evero Intercept (change at Week 4) [4]: −5.141
- FKSI-19 Total, Cabo vs Evero Slope [4]: 0.082
- FKSI-DRS (9-item), Cabo vs Evero Intercept (change at Week 4) [4]: −1.307
- FKSI-DRS (9-item), Cabo vs Evero Slope [4]: 0.046
- EQ-VAS, Cabo vs Evero Intercept (change at Week 4) (Median Dropout (Weeks 25-33)): −0.352
- EQ-VAS, Cabo vs Evero Slope (Median Dropout (Weeks 25-33)): 0.146
- FKSI-19 Total, Cabo vs Evero Intercept (change at Week 4) (Median Dropout (Weeks 25-33)): −2.003
- FKSI-19 Total, Cabo vs Evero Slope (Median Dropout (Weeks 25-33)): 0.141
- FKSI-DRS (9-item), Cabo vs Evero Intercept (change at Week 4) (Median Dropout (Weeks 25-33)): −0.313
- FKSI-DRS (9-item), Cabo vs Evero Slope (Median Dropout (Weeks 25-33)): 0.094
- TTD HR, cabozantinib vs everolimus (overall ITT, unstratified): 0.65
- Median time to deterioration (TTD) (overall ITT): 5.5 mo
- EQ-VAS, LSMean change from baseline (repeated measures, ITT): −1.32
- FKSI-19 (19-item) Total Score, LSMean change from baseline (repeated measures, ITT): −3.483
- FKSI-DRS (9-item), LSMean change from baseline (repeated measures, ITT): −0.52

SMILES: CO[C@H]1C[C@@H]2CC[C@@H](C)[C@@](O)(O2)C(=O)C(=O)N2CCCC[C@H]2C(=O)O[C@H]([C@H](C)C[C@@H]2CC[C@@H](OCCO)[C@H](OC)C2)CC(=O)[C@H](C)/C=C(\C)[C@@H](O)[C@@H](OC)C(=O)[C@H](C)C[C@H](C)/C=C/C=C/C=C/1C [everolimus]
- Able to work, LSMean change from baseline (repeated measures, ITT): −0.101
- Blood in my urine, LSMean change from baseline (repeated measures, ITT): −0.001
- Bone pain, LSMean change from baseline (repeated measures, ITT): 0.057
- Content with quality life, LSMean change from baseline (repeated measures, ITT): −0.017
- Coughing, LSMean change from baseline (repeated measures, ITT): −0.059
- Diarrhea, LSMean change from baseline (repeated measures, ITT): −0.326
- Enjoy life, LSMean change from baseline (repeated measures, ITT): −0.014
- Fatigued, LSMean change from baseline (repeated measures, ITT): −0.305
- Fevers, LSMean change from baseline (repeated measures, ITT): −0.021
- Good appetite, LSMean change from baseline (repeated measures, ITT): 0.181
- Lack of energy, LSMean change from baseline (repeated measures, ITT): −0.207
- Losing weight, LSMean change from baseline (repeated measures, ITT): −0.301
- Nausea, LSMean change from baseline (repeated measures, ITT): 0.069
- Pain, LSMean change from baseline (repeated measures, ITT): 0.067
- Short of breath, LSMean change from baseline (repeated measures, ITT): −0.271
- Side effects of treatment, LSMean change from baseline (repeated measures, ITT): −0.523
- Sleeping well, LSMean change from baseline (repeated measures, ITT): −0.152
- Weak all over, LSMean change from baseline (repeated measures, ITT): −0.265
- Worry condition worsen, LSMean change from baseline (repeated measures, ITT): 0.393
- DRS-Emotional, LSMean change from baseline (repeated measures, ITT): 0.393
- DRS-Physical, LSMean change from baseline (repeated measures, ITT): −1.386
- Function/Well-Being, LSMean change from baseline (repeated measures, ITT): −0.169
- Treatment Side Effects, LSMean change from baseline (repeated measures, ITT): −0.814
- Median TTD [1]: 3.8 mo
- Median TTD [2]: 1.9 mo
- EQ-Index, Evero Intercept (change at Week 4) (Early Dropout (before Week 24)): −0.046
- EQ-VAS, Evero Intercept (change at Week 4) (Early Dropout (before Week 24)): −2.474
- FKSI-19 Total, Evero Intercept (change at Week 4) (Early Dropout (before Week 24)): −3.643
- FKSI-DRS (9-item), Evero Intercept (change at Week 4) (Early Dropout (before Week 24)): −2.002
- EQ-Index, Evero Intercept (change at Week 4) [4]: 0.033
- EQ-VAS, Evero Intercept (change at Week 4) [4]: 1.012
- FKSI-19 Total, Evero Intercept (change at Week 4) [4]: 1.105
- FKSI-DRS (9-item), Evero Intercept (change at Week 4) [4]: 0.453
- EQ-Index, Evero Intercept (change at Week 4) (Median Dropout (Weeks 25-33)): −0.018
- EQ-VAS, Evero Intercept (change at Week 4) (Median Dropout (Weeks 25-33)): −1.181
- FKSI-19 Total, Evero Intercept (change at Week 4) (Median Dropout (Weeks 25-33)): −1.838
- FKSI-DRS (9-item), Evero Intercept (change at Week 4) (Median Dropout (Weeks 25-33)): −0.843
- Median time to deterioration (TTD) (overall ITT): 3.7 mo
- EQ-Index, LSMean change from baseline (repeated measures, ITT): −0.02
- EQ-VAS, LSMean change from baseline (repeated measures, ITT): −1.27
- FKSI-19 (19-item) Total Score, LSMean change from baseline (repeated measures, ITT): −2.214
- FKSI-DRS (9-item), LSMean change from baseline (repeated measures, ITT): −0.93

From patent US11141413B2, “Method of treating renal cell carcinoma using N-(4-(6,7-dimethoxyquinolin-4-yloxy)phenyl)-N′-(4-fluorophenyl)cyclopropane-1,1-dicarboxamide, (2S)-hydroxybutanedioate” (Exelixis, Inc., priority 2016, dated 2021)
